Assay results from the NIST ThermoML archive (doi:10.1021/je101230a).
± gives the expanded uncertainty stated by the source.

Details: Crystal; DTA

## CCc1ccc(CCOc2ccc(CC3SC(=O)NC3=O)cc2)nc1.Cl (stereo unspecified)
  Normal melting temperature: 198.00 ± 1.1 °C
